# From patent US8524755B2 (priority 2009, dated 2013)
# Key:
# [1] = target: T1, human GABAA α1β3 receptor (Homo sapiens, UniProt P14867+P28472); experiment: cell-based; details: for inhibition at 100 µM: read-out: α1β3 GABAA % Inhibition @ 100 μM; for IC50: α1β3 GABAA IC50 (μM)
# T1 construct: expressed in transfected cells; host or cells: Xenopus laevis oocytes, cDNA injection
# T1 sequence (P14867 28-456): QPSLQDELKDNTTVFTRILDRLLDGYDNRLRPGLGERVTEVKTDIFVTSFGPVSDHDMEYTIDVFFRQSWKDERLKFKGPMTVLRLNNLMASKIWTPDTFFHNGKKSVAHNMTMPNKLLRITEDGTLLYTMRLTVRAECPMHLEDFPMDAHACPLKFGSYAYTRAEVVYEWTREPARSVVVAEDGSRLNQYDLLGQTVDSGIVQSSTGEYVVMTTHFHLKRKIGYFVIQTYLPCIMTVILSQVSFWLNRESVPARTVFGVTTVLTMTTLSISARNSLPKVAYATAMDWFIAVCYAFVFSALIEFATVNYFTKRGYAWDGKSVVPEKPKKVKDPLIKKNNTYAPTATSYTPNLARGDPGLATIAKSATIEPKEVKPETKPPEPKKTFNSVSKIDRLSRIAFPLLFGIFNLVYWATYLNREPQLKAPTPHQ
# T1 sequence (P28472 26-473): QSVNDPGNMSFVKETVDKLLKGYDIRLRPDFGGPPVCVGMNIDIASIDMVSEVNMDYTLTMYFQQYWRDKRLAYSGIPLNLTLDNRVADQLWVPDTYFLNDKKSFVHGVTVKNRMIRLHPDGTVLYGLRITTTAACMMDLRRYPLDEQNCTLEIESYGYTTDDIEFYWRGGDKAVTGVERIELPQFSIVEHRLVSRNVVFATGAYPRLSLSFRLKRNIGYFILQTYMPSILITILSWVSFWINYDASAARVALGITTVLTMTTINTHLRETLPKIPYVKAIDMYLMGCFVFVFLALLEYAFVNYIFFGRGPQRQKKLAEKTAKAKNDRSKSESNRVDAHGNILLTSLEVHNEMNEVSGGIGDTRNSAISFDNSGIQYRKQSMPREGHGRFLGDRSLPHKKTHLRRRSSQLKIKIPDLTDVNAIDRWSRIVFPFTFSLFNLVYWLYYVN
# [2] = target: T2, human GABAA α1β3γ2 receptor (Homo sapiens, UniProt P14867+P18507+P28472); experiment: GABAA Functional Assay, α1β3γ2, Xenopus oocytes; type: cell-based
# T2 construct: expressed in transfected cells; host or cells: Xenopus laevis oocytes, cDNA injection
# Glucocorticoid GR (h) = target: T3, Glucocorticoid GR (h) (Homo sapiens, UniProt P04150); experiment: Binding GR (h) (ag); details: read-out: % Inhibition of Control Specific Binding @ 10 μM
# T3 construct: IM-9 cells (cytosol); endogenous in cells; host or cells: IM-9 cells (cytosol)
# T3 sequence (P04150 1-777): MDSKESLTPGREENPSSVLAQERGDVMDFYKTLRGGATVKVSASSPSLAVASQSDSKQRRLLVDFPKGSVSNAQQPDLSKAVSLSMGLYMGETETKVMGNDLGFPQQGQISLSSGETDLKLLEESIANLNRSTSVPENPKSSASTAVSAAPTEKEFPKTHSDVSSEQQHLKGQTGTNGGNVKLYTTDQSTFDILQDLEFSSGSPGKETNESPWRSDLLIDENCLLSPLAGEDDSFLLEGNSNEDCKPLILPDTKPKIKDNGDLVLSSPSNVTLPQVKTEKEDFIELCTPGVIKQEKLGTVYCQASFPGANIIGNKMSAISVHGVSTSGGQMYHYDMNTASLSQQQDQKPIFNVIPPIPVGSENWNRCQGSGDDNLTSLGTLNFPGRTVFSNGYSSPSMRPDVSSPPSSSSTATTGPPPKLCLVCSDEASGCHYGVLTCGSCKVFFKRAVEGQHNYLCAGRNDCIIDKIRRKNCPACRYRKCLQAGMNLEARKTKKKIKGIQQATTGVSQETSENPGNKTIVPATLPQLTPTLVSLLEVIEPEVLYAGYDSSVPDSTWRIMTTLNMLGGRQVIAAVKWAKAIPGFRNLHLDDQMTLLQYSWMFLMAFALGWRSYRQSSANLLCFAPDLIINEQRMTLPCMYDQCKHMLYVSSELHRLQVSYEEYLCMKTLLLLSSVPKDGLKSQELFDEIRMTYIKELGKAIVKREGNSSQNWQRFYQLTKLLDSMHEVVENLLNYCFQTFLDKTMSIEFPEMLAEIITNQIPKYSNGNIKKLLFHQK
# Procedure: (§1) Radioligand binding assay methods utilized to measure the activity of compounds of the invention will be familiar to those skilled in the art. In each assay case, the assay components such as, for example, the cell-type, ligand, reference compound and the like, will be familiar to practitioners of such an assay.
# (§2) Analysis and Expression of Results: Compounds of the invention were tested in the biochemical assays and percent inhibition of specific binding was determined. The specific ligand binding to the receptors is defined as the difference between the total binding and the nonspecific binding determined in the presence of an excess of unlabelled ligand. The results are expressed as a percent inhibition of control specific binding (100−((measured specific binding/control specific binding)×100)) obtained in the presence of test compounds.
# Vasopressin V2 (h) = target: T4, Vasopressin V2 (h) (Homo sapiens, UniProt P30518); experiment: Binding V2 (h) (ag); details: read-out: % Inhibition of Control Specific Binding @ 10 μM
# T4 construct: expressed in transfected cells; host or cells: CHO cells
# Procedure: as §1, §2
# P2X = experiment: Binding P2X (ag); set-up: species or system rat
# Procedure: as §1, §2
# T4 sequence (P30518 whole entry): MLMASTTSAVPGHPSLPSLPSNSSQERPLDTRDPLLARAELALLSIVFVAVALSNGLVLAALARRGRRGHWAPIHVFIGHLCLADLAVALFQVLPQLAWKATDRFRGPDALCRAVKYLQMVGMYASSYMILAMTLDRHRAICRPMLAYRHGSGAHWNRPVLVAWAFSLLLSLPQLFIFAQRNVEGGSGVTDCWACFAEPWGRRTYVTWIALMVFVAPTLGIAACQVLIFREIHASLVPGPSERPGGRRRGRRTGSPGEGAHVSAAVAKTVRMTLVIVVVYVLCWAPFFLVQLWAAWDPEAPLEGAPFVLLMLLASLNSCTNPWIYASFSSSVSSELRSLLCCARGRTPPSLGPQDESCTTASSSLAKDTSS
# T2 sequence (P18507 40-475, one chain of several): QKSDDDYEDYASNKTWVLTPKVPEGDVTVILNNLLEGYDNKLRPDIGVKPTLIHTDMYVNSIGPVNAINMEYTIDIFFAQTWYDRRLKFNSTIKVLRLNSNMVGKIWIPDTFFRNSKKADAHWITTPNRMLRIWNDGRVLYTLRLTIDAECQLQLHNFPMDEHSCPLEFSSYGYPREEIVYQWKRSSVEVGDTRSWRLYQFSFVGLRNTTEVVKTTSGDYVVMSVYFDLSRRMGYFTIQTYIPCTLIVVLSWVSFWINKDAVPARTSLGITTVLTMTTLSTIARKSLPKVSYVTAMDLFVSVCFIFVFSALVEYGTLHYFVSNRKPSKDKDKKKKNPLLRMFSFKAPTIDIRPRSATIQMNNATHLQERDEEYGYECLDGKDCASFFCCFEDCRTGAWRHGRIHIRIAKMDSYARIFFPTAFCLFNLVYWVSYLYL
Compound,inhibition achieved at the highest concentration [1] [%],inhibition at 100 µM [1] [%],IC50 [1] [µM],"IC50 ([2]; antagonist protocol, Xenopus oocytes, read-out: α1β3γ2 receptor derived IC50) [µM]",inhibition at 10 µM (Glucocorticoid GR (h)) [%],inhibition at 10 µM (Vasopressin V2 (h)) [%],% Inhibition of Control Specific Binding @ 10 μM (P2X) [%],agonist activity at α1β3γ2 GABAA receptor (inward currents) ([2]; single exposure 30 sec)
"CC1(C)C(=O)N(c2ccc(C#N)c(C(F)(F)F)c2)C(=S)N1c1ccc(C(=O)O)c(F)c1 [(MI), 4-(3-(4-cyano-3-(trifluoromethyl)phenyl)-5,5-dimethyl-4-oxo-2-thioxoimidazolidin-1-yl)-2-fluorobenzoic acid]",75±18.4,90,20.7 ± 6,68.3 ± 6,5,5,4,
"CC1(C)C(=O)N(c2ccc(C#N)c(C(F)(F)F)c2)C(=S)N1c1ccc(C(N)=O)c(F)c1 [(MII), 4-(3-(4-Cyano-3-(trifluoromethyl)phenyl)-5,5-dimethyl-4-oxo-2-thioxoimidazolidin-1-yl)-2-fluorobenzamide]",80±10,88,,,30,3,4,
"CC1(C)C(=O)N(c2ccc(C#N)c(C(F)(F)F)c2)C(=O)N1c1ccc(C(N)=O)c(F)c1 [(MIII), 4-(3-(4-cyano-3-(trifluoromethyl)phenyl)-5,5-dimethyl-2,4-dioxoimidazolidin-1-yl)-2-fluorobenzamide]",,57,4 ± 3.15,,0,4,2,
"CNC(=O)c1ccc(N2C(=O)N(c3ccc(C#N)c(C(F)(F)F)c3)C(=O)C2(C)C)cc1F [(MIV), 4-(3-(4-cyano-3-(trifluoromethyl)phenyl)-5,5-dimethyl-2,4-dioxoimidazolidin-1-yl)-2-fluoro-N-methylbenzamide]",,78,,,4,-1,2,did not evoke any detectable inward currents
